Measured values as given in patent US10227357B2, “Compounds and methods for kinase modulation, and indications therefor” (Plexxikon Inc., priority 2012, dated 2019).

Columns and labels:
c-kit kinase = target: T1, c-kit kinase (Homo sapiens, UniProt P10721); experiment: c-Kit biochemical assay, AlphaScreen, 10 μM ATP; conditions: c-kit biochemical inhibitory activity; read-out: Biochemical activity (IC50 μM) Kit
T1 construct: The c-kit (or kinase domain thereof) is an active kinase in AlphaScreen; poly-Histidine tag (in-house protein only) (cleaved yes); host or cells: E. coli BL21(DE3)RIL, co-expressed with PTP1B
T1 sequence (P10721 26-976): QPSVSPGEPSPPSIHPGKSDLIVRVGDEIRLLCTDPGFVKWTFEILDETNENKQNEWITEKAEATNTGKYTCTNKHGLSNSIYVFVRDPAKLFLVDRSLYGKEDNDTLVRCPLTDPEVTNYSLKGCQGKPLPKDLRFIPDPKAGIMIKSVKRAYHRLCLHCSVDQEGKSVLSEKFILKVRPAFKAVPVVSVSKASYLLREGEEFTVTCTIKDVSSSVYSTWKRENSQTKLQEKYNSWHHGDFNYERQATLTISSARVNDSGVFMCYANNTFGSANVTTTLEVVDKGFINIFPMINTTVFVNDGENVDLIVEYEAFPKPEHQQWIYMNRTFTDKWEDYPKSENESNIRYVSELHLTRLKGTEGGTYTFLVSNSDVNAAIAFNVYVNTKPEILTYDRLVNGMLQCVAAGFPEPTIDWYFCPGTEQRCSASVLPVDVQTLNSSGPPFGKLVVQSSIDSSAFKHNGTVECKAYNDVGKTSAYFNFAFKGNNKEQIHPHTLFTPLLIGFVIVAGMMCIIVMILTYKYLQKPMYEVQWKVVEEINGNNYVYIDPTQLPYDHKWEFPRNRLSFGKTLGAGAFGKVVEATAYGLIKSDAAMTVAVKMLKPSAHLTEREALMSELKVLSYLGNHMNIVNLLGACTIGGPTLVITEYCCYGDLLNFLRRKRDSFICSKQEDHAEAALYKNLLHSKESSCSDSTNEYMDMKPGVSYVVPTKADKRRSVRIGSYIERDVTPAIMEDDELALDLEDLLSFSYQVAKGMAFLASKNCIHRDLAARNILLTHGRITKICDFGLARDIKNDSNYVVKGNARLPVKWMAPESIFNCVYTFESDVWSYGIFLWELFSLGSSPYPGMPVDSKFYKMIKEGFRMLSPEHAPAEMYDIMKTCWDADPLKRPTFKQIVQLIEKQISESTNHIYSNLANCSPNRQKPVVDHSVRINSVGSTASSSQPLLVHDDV
Procedure, shortened: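 His-tagged c-Kit expressed in E. coli with co-expressed PTP1B (dephosphorylated), tag removed; 0.1 ng per reaction with biotinylated-peptide substrate in 50 mM HEPES pH 7.2, 5 mM MgCl2, 5 mM MnCl2, 5% DMSO, 10 μM ATP, 1 h at room temperature. Phosphorylation detected by AlphaScreen (streptavidin donor, PY20 acceptor beads); IC50 from 8-point 1:3 dilution series.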

c-kit mutant D816V = target: T2, c-kit mutant D816V (Homo sapiens, UniProt P10721, D816V/DEL694-753); experiment: c-Kit mutant D816V biochemical assay, AlphaScreen; conditions: c-kit D816V biochemical inhibitory activity; read-out: Biochemical activity (IC50 μM) Kit D816V
T2 construct: residues 551-934, kinase insertion domain residues 694-753 deleted; 6x-histidine (N); made in house; host or cells: E. coli Arctic Express (DE3) RIL (Stratagene)
T2 sequence (P10721 with tags, fused parts or gaps DEL694-753/D816V): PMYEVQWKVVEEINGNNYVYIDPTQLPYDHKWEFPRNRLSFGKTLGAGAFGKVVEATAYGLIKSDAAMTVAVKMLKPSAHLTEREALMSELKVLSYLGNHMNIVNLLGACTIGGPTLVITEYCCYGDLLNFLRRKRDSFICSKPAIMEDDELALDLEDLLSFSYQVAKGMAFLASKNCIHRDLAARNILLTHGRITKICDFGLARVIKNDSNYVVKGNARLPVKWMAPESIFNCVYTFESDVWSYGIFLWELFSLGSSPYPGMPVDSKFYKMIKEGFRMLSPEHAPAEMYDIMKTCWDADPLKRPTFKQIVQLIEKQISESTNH
Procedure, shortened: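 Eight-point, threefold compound series incubated 30 min at room temperature with E. coli-produced D816V kinase, 10 μM ATP, Mg2+/Mn2+ HEPES buffer pH 7.2 and 5% DMSO. After EDTA stop, streptavidin and anti-phosphotyrosine (PY20) AlphaScreen beads gave the read-out, and IC50 was fitted from the concentration–signal curve.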

| SMILES | IC50 (c-kit kinase) [µM] | IC50 (c-kit mutant D816V) [µM] |
| --- | --- | --- |
| C[C@H]1CN(c2ncnc3[nH]c(-c4ccncc4)cc23)CCN1C(=O)Nc1ccc(Cl)cc1 [P-0045, (2S)-N-(4-chlorophenyl)-2-methyl-4-[6-(4-pyridyl)-7H-pyrrolo[2,3-d]pyrimidin-4-yl]piperazine-1-carboxamide] | 1 to 10 | 1 to 10 |
| O=C(NCc1ccccc1Cl)N1CCN(c2ncnc3[nH]c(-c4ccc(F)cc4)cc23)CC1 [P-0154, N-[(2-chlorophenyl)methyl]-4-[6-(4-fluorophenyl)-7H-pyrrolo[2,3-d]pyrimidin-4-yl]piperazine-1-carboxamide] | 10 to 200 | 1 to 10 |
| CCOc1cccc(NC(=O)N2CCN(c3ncnc4[nH]c(-c5cccnc5)cc34)CC2)c1 [P-0221, N-(3-ethoxyphenyl)-4-[6-(3-pyridyl)-7H-pyrrolo[2,3-d]pyrimidin-4-yl]piperazine-1-carboxamide] | 1 to 10 | 0.0001 to 1 |
| C[C@@H]1CN(c2ncnc3[nH]c(-c4ccc(F)cc4)cc23)CCN1C(=O)N[C@H](C)c1ccc(Cl)cc1 [P-0035, (2R)-N-[(1R)-1-(4-chlorophenyl)ethyl]-4-[6-(4-fluorophenyl)-7H-pyrrolo[2,3-d]pyrimidin-4-yl]-2-methyl-piperazine-1-carboxamide] | 10 to 200 | 1 to 10 |
| NS(=O)(=O)c1ccc(-c2cc3c(N4CCN(C(=O)NCc5ccc(F)cc5)CC4)ncnc3[nH]2)cc1 [P-0099, N-[(4-fluorophenyl)methyl]-4-[6-(4-sulfamoylphenyl)-7H-pyrrolo[2,3-d]pyrimidin-4-yl]piperazine-1-carboxamide] | 1 to 10 | 0.0001 to 1 |
| COc1cc(-c2cc3c(N4CCN(C(=O)N[C@@H](C)c5cccc(Cl)c5)C(C)(C)C4)ncnc3[nH]2)ccn1 [P-0650, N-[(1S)-1-(3-chlorophenyl)ethyl]-4-[6-(2-methoxy-4-pyridyl)-7H-pyrrolo[2,3-d]pyrimidin-4-yl]-2,2-dimethyl-piperazine-1-carboxamide] | 1 to 10 | 0.0001 to 1 |
| O=C(Nc1ccc(OC(F)(F)F)cc1)N1CCN(c2ncnc3[nH]c(-c4ccc(Cl)cc4)cc23)CC1 [P-0134, 4-[6-(4-chlorophenyl)-7H-pyrrolo[2,3-d]pyrimidin-4-yl]-N-[4-(trifluoromethoxy)phenyl]piperazine-1-carboxamide] | 0.0001 to 1 | 1 to 10 |
| COc1ccc(-c2cc3c(N4CCN(C(=O)Nc5ccc(OC(F)(F)F)cc5)CC4)ncnc3[nH]2)cn1 [P-0118, 4-[6-(6-methoxy-3-pyridyl)-7H-pyrrolo[2,3-d]pyrimidin-4-yl]-N-[4-(trifluoromethoxy)phenyl]piperazine-1-carboxamide] | 0.0001 to 1 | 10 to 200 |
| O=S(=O)(Nc1ccc(-c2ncnc3[nH]c(-c4ccc(F)cc4)cc23)cc1F)c1ccc(F)cc1 [P-0408, 4-fluoro-N-[2-fluoro-4-[6-(4-fluorophenyl)-7H-pyrrolo[2,3-d]pyrimidin-4-yl]phenyl]benzenesulfonamide] | 10 to 200 | 1 to 10 |
| Cc1ccc(-c2cc3c(N4CCN(C(=O)Nc5ccc(OC(F)(F)F)cc5)CC4)ncnc3[nH]2)cn1 [P-0115, 4-[6-(6-methyl-3-pyridyl)-7H-pyrrolo[2,3-d]pyrimidin-4-yl]-N-[4-(trifluoromethoxy)phenyl]piperazine-1-carboxamide] | 0.0001 to 1 | 10 to 200 |
| CNS(=O)(=O)c1ccc(-c2ncnc3[nH]c(-c4ccc(F)cc4)cc23)cc1 [P-0430, 4-[6-(4-fluorophenyl)-7H-pyrrolo[2,3-d]pyrimidin-4-yl]-N-methyl-benzenesulfonamide] | 1 to 10 | 0.0001 to 1 |
| COc1cccc([C@@H](C)NC(=O)N2CCN(c3ncnc4cc(-c5ccc(F)cc5)sc34)C[C@H]2C)c1 [P-0605, (2R)-4-[6-(4-fluorophenyl)thieno[3,2-d]pyrimidin-4-yl]-N-[(1R)-1-(3-methoxyphenyl)ethyl]-2-methyl-piperazine-1-carboxamide] | 10 to 200 | 10 to 200 |
| Cc1nn(C)cc1-c1cc2ncnc(N3CCN(C(=O)N[C@@H](C)c4cccc(Cl)c4)[C@H](C)C3)c2s1 [P-0591, (2R)-N-[(1S)-1-(3-chlorophenyl)ethyl]-4-[6-(1,3-dimethylpyrazol-4-yl)thieno[3,2-d]pyrimidin-4-yl]-2-methyl-piperazine-1-carboxamide] | 10 to 200 | 0.0001 to 1 |
| COc1cccc([C@@H](C)NC(=O)N2CCN(c3ncnc4[nH]c(-c5ccc(F)cc5)cc34)CC2)c1 [P-0149, 4-[6-(4-fluorophenyl)-7H-pyrrolo[2,3-d]pyrimidin-4-yl]-N-[(1R)-1-(3-methoxyphenyl)ethyl]piperazine-1-carboxamide] | 10 to 200 | 10 to 200 |
| CC(=O)Nc1cccc(-c2cc3c(N4CCN(C(=O)NCc5ccc(F)cc5)CC4)ncnc3[nH]2)c1 [P-0082, 4-[6-(3-acetamidophenyl)-7H-pyrrolo[2,3-d]pyrimidin-4-yl]-N-[(4-fluorophenyl)methyl]piperazine-1-carboxamide] | 1 to 10 | 0.0001 to 1 |
| N#Cc1ccc(-c2cc3c(N4CCN(C(=O)Nc5ccc(OC(F)(F)F)cc5)CC4)ncnc3[nH]2)cc1 [P-0086, 4-[6-(4-cyanophenyl)-7H-pyrrolo[2,3-d]pyrimidin-4-yl]-N-[4-(trifluoromethoxy)phenyl]piperazine-1-carboxamide] | 1 to 10 | 0.0001 to 1 |
| CS(=O)(=O)Nc1ccc(-c2ncnc3[nH]c(-c4ccc(F)cc4F)cc23)c(F)c1 [P-0333, N-[4-[6-(2,4-difluorophenyl)-7H-pyrrolo[2,3-d]pyrimidin-4-yl]-3-fluoro-phenyl]methanesulfonamide] | 0.0001 to 1 | 0.0001 to 1 |
| [2H]C([2H])([2H])Oc1cccc([C@H](C)NC(=O)N2CCN(c3ncnc4[nH]c(-c5ccc(F)cc5)cc34)CC2)c1 [P-0015, 4-[6-(4-fluorophenyl)-7H-pyrrolo[2,3-d]pyrimidin-4-yl]-N-[(1S)-1-[3-(trideuteriomethoxy)phenyl]ethyl]piperazine-1-carboxamide] | 1 to 10 | 0.0001 to 1 |
| Cn1cc(-c2cc3c(N4CCN(C(=O)NCc5ccc(Cl)cc5)CC4)ncnc3[nH]2)cn1 [P-0097, N-[(4-chlorophenyl)methyl]-4-[6-(1-methylpyrazol-4-yl)-7H-pyrrolo[2,3-d]pyrimidin-4-yl]piperazine-1-carboxamide] | 0.0001 to 1 | 0.0001 to 1 |
| O=C(NCc1ccc(F)cc1)N1CCN(c2ncnc3[nH]ccc23)CC1 [P-0182, N-[(4-fluorophenyl)methyl]-4-(7H-pyrrolo[2,3-d]pyrimidin-4-yl)piperazine-1-carboxamide] | 10 to 200 | 10 to 200 |
| Cc1nn(C)cc1-c1cc2c(N3CCC(NS(=O)(=O)c4ccc(OC(F)(F)F)cc4)CC3)ncnc2[nH]1 [P-0668, N-[1-[6-(1,3-dimethylpyrazol-4-yl)-7H-pyrrolo[2,3-d]pyrimidin-4-yl]-4-piperidyl]-4-(trifluoromethoxy)benzenesulfonamide] | 0.0001 to 1 | 0.0001 to 1 |
| COc1cc2ncnc(-c3ccc(NS(=O)(=O)C4CC4)cc3F)c2cc1OCCCN1CCOCC1 [P-0251, N-[3-fluoro-4-[7-methoxy-6-(3-morpholinopropoxy)quinazolin-4-yl]phenyl]cyclopropanesulfonamide] | 10 to 200 | 0.0001 to 1 |
